Test results taken from ChEMBL document CHEMBL3120136 (J Med Chem, 2014).
*1 amine or outer side, *2 acyl side, *3 side chain or, on linkers, in order; H or OH if unused. Where a SMILES comes first, the peptide text is derived from it. Side-chain parts run from the residue outwards. [ ]: non-standard residue; d: D form. The star is where a group is joined. Ac3c(1R,2S-2-vinyl) = C=C[C@@H]1C[C@]1(N)C(=O)O; NH(1-naphthylmethyl) = c1ccc2c(CN*)cccc2c1; NH(1-naphthyl) = c1ccc2c(N*)cccc2c1; Hyp = O=C(O)[C@@H]1C[C@@H](O)CN1; Chg = N[C@H](C(=O)O)C1CCCCC1; X2 = c1ccc(C2CN(*)CCO2)cc1; X3 = c1ccc(C2CCN(*)C2)cc1; Morpholide = C1CN(*)CCO1; Piperidide = C1CCN(*)CC1; Pyrrolidide = C1CCN(*)C1; X4 = c1ccc(C2COCCN2*)cc1; X5 = c1ccc2c(c1)CN(*)C2; X1 = c1ccc2c(c1)CCN2*; CO = O=C([*:1])[*:2]

Experiments:
[1] = test system: Hepatitis C virus; test: Antiviral activity against Hepatitis C virus infected in human HuH7 cells assessed as inhibition of HCV subgenomic replicon replication after 72 hrs by ELISA; format: functional, organism-based, Hepacivirus hominis, Huh-7
[2] = Inhibition of Hepatitis C virus full-length NS3/4A protease assessed as quenched-fluorogenic RET-S1 substrate cleavage incubated for 10 mins prior to substrate addition by FRET analysis; design: species or system Hepacivirus hominis
[3] = Hepatitis C virus, Huh-7, 72 h, read-out: EC50

| SMILES | EC50 [1, 3] [nM] | IC50 [2] [nM] | EC50 ([1]; huh-7) |
| --- | --- | --- | --- |
| CC(C)(C)OC(=O)N[C@H]1CCCCC/C=C\[C@@H]2C[C@@]2(C(=O)NS(=O)(=O)C2CC2)NC(=O)[C@@H]2C[C@@H](NC(=O)c3sc4cccc(Cl)c4c3Cl)CN2C1=O | 9.5 | 1.4 |  |
| CC(C)(C)OC(=O)N[C@H]1CCCCC/C=C\[C@@H]2C[C@@]2(C(=O)NS(=O)(=O)N2CCNCC2)NC(=O)[C@@H]2C[C@@H](OC(=O)N3Cc4ccccc4C3)CN2C1=O | 509 | 22 |  |
| CC(C)(C)OC(=O)N[C@H]1CCCCC/C=C\[C@@H]2C[C@@]2(C(=O)NS(=O)(=O)C2CC2)NC(=O)[C@@H]2C[C@@H](NC(=O)c3cc4ccccc4s3)CN2C1=O | 21 | 1.4 |  |
| CN(C)c1ccc(S(=O)(=O)NC(=O)[C@@]23C[C@H]2/C=C\CCCCC[C@H](NC(=O)OC(C)(C)C)C(=O)N2C[C@H](OC(=O)N4Cc5ccccc5C4)C[C@H]2C(=O)N3)cc1 | 45 | 11 |  |
| O=C(N[C@H]1CCCCC/C=C\[C@@H]2C[C@@]2(C(=O)NS(=O)(=O)C2CC2)NC(=O)[C@@H]2C[C@@H](OC(=O)N3Cc4ccccc4C3)CN2C1=O)OC1CCOCC1 | 97 | 2.2 |  |
| CC(C)(C)OC(=O)N[C@H]1CCCCC/C=C\[C@@H]2C[C@@]2(C(=O)NS(=O)(=O)c2ccccc2)NC(=O)[C@@H]2C[C@@H](OC(=O)N3Cc4ccccc4C3)CN2C1=O | 11 | 3.5 |  |
| CC(C)(C)OC(=O)N[C@H]1CCCCC/C=C\[C@@H]2C[C@@]2(C(=O)NS(=O)(=O)Nc2ccccc2)NC(=O)[C@@H]2C[C@@H](OC(=O)N3Cc4ccccc4C3)CN2C1=O | 30 | 2.2 |  |
| CC(C)(C)OC(=O)N[C@H]1CCOCC/C=C\[C@@H]2C[C@@]2(C(=O)NS(=O)(=O)C2CC2)NC(=O)[C@@H]2C[C@@H](OC(=O)N3Cc4cccc(F)c4C3)CN2C1=O | 33 | 1.2 |  |
| CC(C)(C)OC(=O)N[C@H]1CCCCC/C=C\[C@@H]2C[C@@]2(C(=O)NS(=O)(=O)C2CC2)NC(=O)[C@@H]2C[C@@H](NC(=O)N3CCc4ccccc4C3)CN2C1=O | 362 | 2.9 |  |
| CC(C)(C)OC(=O)N[C@H]1CCCCC/C=C\[C@@H]2C[C@@]2(C(=O)O)NC(=O)[C@@H]2C[C@@H](OC(=O)N3Cc4cc(Cl)c(Cl)cc4C3)CN2C1=O | 25000 | 483 |  |
| CC(C)(C)OC(=O)N[C@H]1CCCCCCC[C@@H]2C[C@@]2(C(=O)NS(=O)(=O)C2CC2)NC(=O)[C@@H]2C[C@@H](OC(=O)N3Cc4cccc(F)c4C3)CN2C1=O | 5.8 | 0.7 |  |
| CC(C)N(C(C)C)S(=O)(=O)NC(=O)[C@@]12C[C@H]1/C=C\CCCCC[C@H](NC(=O)OC(C)(C)C)C(=O)N1C[C@H](OC(=O)N3Cc4ccccc4C3)C[C@H]1C(=O)N2 | 139 | 70 |  |
| CC(C)(C)OC(=O)N[C@H]1CCCCC/C=C\[C@@H]2C[C@@]2(C(=O)NS(=O)(=O)C2CC2)NC(=O)[C@@H]2C[C@@H](OC(=O)N3Cc4ccc(N5CCOCC5)cc4C3)CN2C1=O | 45 | 0.8 |  |
| N[C@H]1CCCCC/C=C\[C@@H]2C[C@@]2(C(=O)NS(=O)(=O)C2CC2)NC(=O)[C@@H]2C[C@@H](OC(=O)N3Cc4cccc(Cl)c4C3)CN2C1=O | 150 | 3 |  |
| CC(C)(C)OC(=O)N[C@H]1CCOCCCC[C@@H]2C[C@@]2(C(=O)NS(=O)(=O)C2CC2)NC(=O)[C@@H]2C[C@@H](OC(=O)N3Cc4cccc(F)c4C3)CN2C1=O | 19 | 0.7 |  |
| CC(C)(C)OC(=O)N[C@H]1CCCCC/C=C\[C@@H]2C[C@@]2(C(=O)NS(=O)(=O)C2CC2)NC(=O)[C@@H]2C[C@@H](OC(=O)N3CCc4ccc(Cl)cc4C3)CN2C1=O | 65 | 4.1 |  |
| CC(C)(C)OC(=O)N[C@H]1CCCCC/C=C\[C@@H]2C[C@@]2(C(=O)NS(=O)(=O)c2cc(F)ccc2F)NC(=O)[C@@H]2C[C@@H](OC(=O)N3Cc4ccccc4C3)CN2C1=O | 285 | 0.7 |  |
| CC(C)(C)OC(=O)N[C@H]1CCCCC/C=C\[C@@H]2C[C@@]2(C(=O)NS(=O)(=O)C2CC2)NC(=O)[C@@H]2C[C@@H](Nc3nc4ccccc4o3)CN2C1=O | 730 | 21 |  |
| CC(C)(C)OC(=O)N[C@H]1CCCCC/C=C\[C@@H]2C[C@@]2(C(=O)O)NC(=O)[C@@H]2C[C@@H](O)CN2C1=O |  | > 50000 | Not Active |

| SMILES | EC50 [1, 3] [nM] | IC50 [2] [nM] | EC50 ([1]; huh-7) |
| --- | --- | --- | --- |
| CC(C)(C)OC(=O)N[C@H]1CCC(F)(F)CCCC[C@@H]2C[C@@]2(C(=O)NS(=O)(=O)C2CC2)NC(=O)[C@@H]2C[C@@H](OC(=O)N3Cc4cccc(F)c4C3)CN2C1=O | 6.8 | 0.8 |  |
| C=C[C@@H]1C[C@]1(NC(=O)[C@@H]1C[C@@H](OC(=O)N2CCOC(c3ccccc3)C2)CN1C(=O)[C@@H](NC(=O)[C@@H](NC(C)=O)C1CCCCC1)C(C)C)C(=O)O (stereo partly drawn) (Ac-[Chg]V[Hyp]([CO-X2])[Ac3c(1R,2S-2-vinyl)]-OH) |  | 4770 |  |
| CC(C)(C)OC(=O)N[C@H]1CCCCC/C=C\[C@@H]2C[C@@]2(C(=O)NS(=O)(=O)N2CCC2)NC(=O)[C@@H]2C[C@@H](OC(=O)N3Cc4ccccc4C3)CN2C1=O | 6.5 | 2.4 |  |
| CC(C)(C)OC(=O)N[C@H]1CCCCC/C=C\[C@@H]2C[C@@]2(C(=O)NS(=O)(=O)C2CC2)NC(=O)[C@@H]2C[C@@H](OC(=O)N3Cc4ccc(F)cc4C3)CN2C1=O | 4 | 3 |  |
| C=C[C@@H]1C[C@]1(NC(=O)[C@@H]1C[C@@H](OC(=O)N2CCOCC2c2ccccc2)CN1C(=O)[C@@H](NC(=O)[C@@H](NC(C)=O)C1CCCCC1)C(C)C)C(=O)O (stereo partly drawn) (Ac-[Chg]V[Hyp]([CO-X4])[Ac3c(1R,2S-2-vinyl)]-OH) |  | 5500 |  |
| CC(=O)O[C@@H]1C[C@H]2C(=O)N[C@]3(C(=O)NS(=O)(=O)C4CC4)C[C@H]3/C=C\CCCCC[C@H](NC(=O)OC(C)(C)C)C(=O)N2C1 | 3910 | 12 |  |
| CC(C)(C)OC(=O)N[C@H]1CCCCCC[C@@H]2C[C@@]2(C(=O)NS(=O)(=O)C2CC2)NC(=O)[C@@H]2C[C@@H](OC(=O)N3Cc4cccc(F)c4C3)CN2C1=O | 22.5 | 1.5 |  |
| O=C(N[C@H]1CCCCC/C=C\[C@@H]2C[C@@]2(C(=O)NS(=O)(=O)C2CC2)NC(=O)[C@@H]2C[C@@H](OC(=O)N3Cc4ccccc4C3)CN2C1=O)OC1CCCC1 | 4 | 1 |  |
| CC(C)(C)OC(=O)N[C@H]1CCCCC/C=C\[C@@H]2C[C@@]2(C(=O)NS(=O)(=O)C2CC2)NC(=O)[C@@H]2C[C@@H](NC(=O)c3nc4cc(Cl)ccc4s3)CN2C1=O | 126 | 5.2 |  |
| CC(C)(C)OC(=O)N[C@H]1CCCCC/C=C\[C@@H]2C[C@@]2(C(=O)NS(=O)(=O)c2ccc(Cl)cc2)NC(=O)[C@@H]2C[C@@H](OC(=O)N3Cc4ccccc4C3)CN2C1=O | 58 | 3 |  |
| C=C[C@@H]1C[C@]1(NC(=O)[C@@H]1C[C@@H](OC(=O)N2CCOCC2)CN1C(=O)[C@@H](NC(=O)[C@@H](NC(C)=O)C1CCCCC1)C(C)C)C(=O)O (Ac-[Chg]V[Hyp]([CO-Morpholide])[Ac3c(1R,2S-2-vinyl)]-OH) |  | 47100 |  |
| C=C[C@@H]1C[C@]1(NC(=O)[C@@H]1C[C@@H](OC(=O)N2Cc3ccccc3C2)CN1C(=O)[C@@H](NC(=O)[C@@H](NC(C)=O)C1CCCCC1)C(C)C)C(=O)O (Ac-[Chg]V[Hyp]([CO-X5])[Ac3c(1R,2S-2-vinyl)]-OH) |  | 186 |  |
| C=C[C@@H]1C[C@]1(NC(=O)[C@@H]1C[C@@H](OC(=O)Nc2cccc3ccccc23)CN1C(=O)[C@@H](NC(=O)[C@@H](NC(C)=O)C1CCCCC1)C(C)C)C(=O)O (Ac-[Chg]V[Hyp]([CO-NH(1-naphthyl)])[Ac3c(1R,2S-2-vinyl)]-OH) |  | 818 |  |
| C=C[C@@H]1C[C@]1(NC(=O)[C@@H]1C[C@@H](OC(=O)NCc2cccc3ccccc23)CN1C(=O)[C@@H](NC(=O)[C@@H](NC(C)=O)C1CCCCC1)C(C)C)C(=O)O (Ac-[Chg]V[Hyp]([CO-NH(1-naphthylmethyl)])[Ac3c(1R,2S-2-vinyl)]-OH) |  | 835 |  |
| C=C[C@@H]1C[C@]1(NC(=O)[C@@H]1C[C@@H](OC(=O)N2CCCC2)CN1C(=O)[C@@H](NC(=O)[C@@H](NC(C)=O)C1CCCCC1)C(C)C)C(=O)O (Ac-[Chg]V[Hyp]([CO-Pyrrolidide])[Ac3c(1R,2S-2-vinyl)]-OH) |  | 14900 |  |
| C=C[C@@H]1C[C@]1(NC(=O)[C@@H]1C[C@@H](OC(=O)N2CCCCC2)CN1C(=O)[C@@H](NC(=O)[C@@H](NC(C)=O)C1CCCCC1)C(C)C)C(=O)O (Ac-[Chg]V[Hyp]([CO-Piperidide])[Ac3c(1R,2S-2-vinyl)]-OH) |  | 4290 |  |
| C=C[C@@H]1C[C@]1(NC(=O)[C@@H]1C[C@@H](OC(=O)N2CCc3ccccc32)CN1C(=O)[C@@H](NC(=O)[C@@H](NC(C)=O)C1CCCCC1)C(C)C)C(=O)O (Ac-[Chg]V[Hyp]([CO-X1])[Ac3c(1R,2S-2-vinyl)]-OH) |  | 200 |  |
| C=C[C@@H]1C[C@]1(NC(=O)[C@@H]1C[C@@H](OC(=O)N2CCC(c3ccccc3)C2)CN1C(=O)[C@@H](NC(=O)[C@@H](NC(C)=O)C1CCCCC1)C(C)C)C(=O)O (stereo partly drawn) (Ac-[Chg]V[Hyp]([CO-X3])[Ac3c(1R,2S-2-vinyl)]-OH) |  | 735 |  |
